PMC9043391, “Isolation and biological activities of compounds from Rumex vesicarius L. and their use as a component of a synbiotic preparation” (Food Chemistry: X, 2022)
Marks after values point to notes of the source that are not given here. Square brackets hold non-standard residues; d marks the D form. Peptide text beside a SMILES is read from it. * marks the point of attachment. Sta = CC(C)C[C@H](N)[C@@H](O)CC(=O)O; Isovaleryl = CC(C)CC(=O)*

How the values were obtained:
[1] = test system: Escherichia coli Nissle 1917 (EcN); test: Growth kinetic curves of Escherichia coli Nissle 1917 (OD600, DMFit); type: cell-based; conditions: for Effect on lag phase of EcN compared with control: 2 mg/mL, in words
Protocol: (§1) Escherichia coli K12 (K12) was chosen as a representative enteric species, and E. coli Nissle 1917 (EcN) was chosen as a representative probiotic strain. Both strains were obtained from the bacterial strain collection in Food Microbiology Laboratory (Dairy department, Faculty of Agriculture, Mansoura University, Egypt). An overnight culture of both strains was activated in nutrient broth (NB) (BD Difco™, Bacton, Dickinson and Company Sparks, MD, USA) at 37 °C for 16–18 h. The culture was diluted on test days in buffered peptone water to a final concentration of 1.5 × 10^8 colony forming units (CFU)/mL cell counts were assessed by pour plate method, one mL of a suitable dilution was incubated on nutrient agar at 37 °C for 24 h. colonies were then counted and converted to CFU/mL ([Dawood et al., 2021]).
An aliquot (100 µL) of EcN was inoculated into NB (BD Difco ^TM) and incubated at 37 °C for 24 h. An overnight culture of EcN was further streaked onto nutrient agar and incubated for 48 h at 37 °C. The EcN culture was diluted in sterile saline solution (0.85%) on the day of assay to adjust the final cell count to 1.5 × 10^8 CFU/mL. Bacterial growth was determined in NB supplemented with individual pure compounds (1–8) or extracts (methanol, petroleum ether, and ethyl acetate) at 2 mg/mL. Growth kinetics of EcN were monitored spectrophotometrically by OD600 every of 60 min at 37 °C ([Pacheco-Ordaz et al., 2018]). DMFit ver. 2.1 an Excel add-in was used to determine: doubling time (Td), lag time, maximum growth at the stationary phase (Y max, OD), and specific growth rate (µmax, OD).

[2] = test system: E. coli Nissle 1917 (EcN) versus Escherichia coli K12; test: Prebiotic activity score (EcN growth relative to enteric E. coli K12, vs glucose); type: cell-based; conditions: EcN vs E. coli K12, 24 h at 37 °C
Protocol: as §1
Log E is log of CFU/mL of K12 at zero time (E0) and 24 h (E24) of culture on glucose and pure compounds. Individual pure compounds or extracts that induce a high value of Pscore improve EcN growth compared with the growth rate of EcN on glucose. Support of K12 growth by pure compounds or extracts theoretically should be low compared to growth of K12 on glucose.

[3] = test system: Escherichia coli Nissle 1917 (EcN); test: Prebiotic index of EcN (CFU on sample vs CFU on glucose); type: cell-based; conditions: 2 mg/mL, 24 h, ratio to growth on 2 mg/mL glucose
Protocol: as §1
Prebiotic index (PI) was estimated as previously described ([Dawood et al., 2021]). E. coli Nissle 1917 was used as the representative probiotic strain. Aliquots containing 10^7 CFU of an overnight culture of EcN were inoculated into separate tubes containing NB. Two mg/mL of extracts or isolated phenolic compounds or 2 mg/mL of glucose as a positive control was added, and growth of EcN was assessed as the number of viable colonies forming units (CFU)/mL after incubation for 24 h using the pour method on nutrient agar, followed by incubation at 37 °C for 24 h. PI is the ratio of growth of EcN in NB supplemented with individual compounds or extracts to growth on glucose. A PI greater than one indicates a positive influence on the growth of EcN. PI was calculated as follows:(1) PI=CFUofEcNinPhenolicCompounds(asprebiotic)/CFUofECNinglucose(ascontrolcarbohydrate)

[4] = molecular target: angiotensin-converting enzyme (ACE) (Homo sapiens, UniProt P12821); test: Angiotensin-converting enzyme inhibitory activity (HHL cleavage, 228 nm); type: biochemical; conditions: whey of yogurt enriched at 2 mg/mL, after 7 days of refrigerated storage; in words
Protocol: Lyophilized aqueous extract (whey) obtained from yogurt enriched with extracts or individual compounds at 2 mg/mL was used. […] The method depends on hipuryl-histdylleucine (HHL) cleavage to hippuric acid by ACE. HHL (3.8 mM) was diluted in 0.1 M borate buffer (200 μL; pH 8.3), including 0.3 M NaCl, then 35 μL of sample solution (2 mg/mL) was added, and the mixture incubated for 10 min at 37 °C. The reaction was initiated by adding 20 μL of ACE solution (0.1 U/mL in borate buffer) and allowed to proceed for 30 min at 37 °C. HCl (250 μL of a 1 M solution) was then added to stop the reaction. […] Subsequently, 1 mL of supernatant (ethyl acetate) was collected in a new tube and placed in boiling water for 30 min to eliminate the solvent. The remaining hippuric acid residue was dissolved in 1 mL of distilled water, and absorbance was measured at 228 nm using distilled water as a blank. All samples were analyzed in triplicate. Captopril (0.008 mg/mL) was used as a positive control, and lyophilized aqueous extract (whey) obtained from plain yogurt was used as a negative control. The calculation of ACE inhibitory activity was determined as follows:(3) ACE inhibition%=[1-(A-C)/(B-D)]×100 where A is absorbance with the sample, HHL, and ACE; B is absorbance with HHL and ACE without sample; C is absorbance with sample and HHL; D is absorbance with HHL without sample and ACE.

pepsin = pepsin (Homo sapiens, UniProt P0DJD8); test: Protease (pepsin) inhibition with bovine serum albumin substrate; type: biochemical; conditions: samples at 2 mg/mL; Pepstatin A 0.5 µg/mL positive control; in words
Protocol: Protease used the protocol of [Hu et al. (2013]). Briefly, 100 µL of pepsin solution (1 mg pepsin/1 mL of 0.02 N HCl) was mixed with 0.5 mL of 10 mg/mL bovine serum albumin and 0.5 mL of extracts or pure compounds (2 mg/mL) and incubated for 30 min at 37 °C. TCA (0.9 mL 5%) was added to stop the reaction, followed by centrifugation (4800g, 15 min). Protein concentration in the final supernatant was determined using Coomassie (Bradford) protein assay kits. Pepstatin A (0. 5 µg/mL) was used as a positive control.

α-amylase = α-amylase inhibition (starch, dinitrosalicylic acid, 540 nm); type: biochemical; conditions: samples at 2 mg/mL; acarbose 5 µg/mL positive control; in words
Protocol: α-amylase inhibition was determined as previously reported ([Hu et al., 2013]). Briefly, 200 µL of 20 mM sodium phosphate buffer (pH 7.0 with 6 mM NaCl), including α-amylase (10 U/mL) and 200 µL of sample (2 mg/mL), was incubated at 37 °C for 45 min. A potato starch solution (400 µL; 0.5%) was added to each sample and incubated at 37 °C in a shaking water bath (100 rpm) for 10 min. The enzymatic reaction was stopped with dinitrosalicylic acid color reagent. Screw cape tubes were transferred to a water bath at 100 °C for 10 min, then cooled to room temperature. Finally, samples were diluted with 3 mL of deionized water (3 mL). Absorbance of diluted reaction mixtures was measured spectrophotometrically at 540 nm (Spectro UV–VIS Auto, UV2602, Labomed, USA). Test and control samples were compared and expressed as percentage inhibition of α-amylase. Acarbose (5 µg/mL) was used as a positive control, and samples in buffer without test compounds or extracts were included as negative controls.

[5] = EcN in nutrient broth supplemented at 2 mg/mL, 37 °C, n = 3

angiotensin-converting enzyme (ACE), sequence (P12821 30-1306, species assumed): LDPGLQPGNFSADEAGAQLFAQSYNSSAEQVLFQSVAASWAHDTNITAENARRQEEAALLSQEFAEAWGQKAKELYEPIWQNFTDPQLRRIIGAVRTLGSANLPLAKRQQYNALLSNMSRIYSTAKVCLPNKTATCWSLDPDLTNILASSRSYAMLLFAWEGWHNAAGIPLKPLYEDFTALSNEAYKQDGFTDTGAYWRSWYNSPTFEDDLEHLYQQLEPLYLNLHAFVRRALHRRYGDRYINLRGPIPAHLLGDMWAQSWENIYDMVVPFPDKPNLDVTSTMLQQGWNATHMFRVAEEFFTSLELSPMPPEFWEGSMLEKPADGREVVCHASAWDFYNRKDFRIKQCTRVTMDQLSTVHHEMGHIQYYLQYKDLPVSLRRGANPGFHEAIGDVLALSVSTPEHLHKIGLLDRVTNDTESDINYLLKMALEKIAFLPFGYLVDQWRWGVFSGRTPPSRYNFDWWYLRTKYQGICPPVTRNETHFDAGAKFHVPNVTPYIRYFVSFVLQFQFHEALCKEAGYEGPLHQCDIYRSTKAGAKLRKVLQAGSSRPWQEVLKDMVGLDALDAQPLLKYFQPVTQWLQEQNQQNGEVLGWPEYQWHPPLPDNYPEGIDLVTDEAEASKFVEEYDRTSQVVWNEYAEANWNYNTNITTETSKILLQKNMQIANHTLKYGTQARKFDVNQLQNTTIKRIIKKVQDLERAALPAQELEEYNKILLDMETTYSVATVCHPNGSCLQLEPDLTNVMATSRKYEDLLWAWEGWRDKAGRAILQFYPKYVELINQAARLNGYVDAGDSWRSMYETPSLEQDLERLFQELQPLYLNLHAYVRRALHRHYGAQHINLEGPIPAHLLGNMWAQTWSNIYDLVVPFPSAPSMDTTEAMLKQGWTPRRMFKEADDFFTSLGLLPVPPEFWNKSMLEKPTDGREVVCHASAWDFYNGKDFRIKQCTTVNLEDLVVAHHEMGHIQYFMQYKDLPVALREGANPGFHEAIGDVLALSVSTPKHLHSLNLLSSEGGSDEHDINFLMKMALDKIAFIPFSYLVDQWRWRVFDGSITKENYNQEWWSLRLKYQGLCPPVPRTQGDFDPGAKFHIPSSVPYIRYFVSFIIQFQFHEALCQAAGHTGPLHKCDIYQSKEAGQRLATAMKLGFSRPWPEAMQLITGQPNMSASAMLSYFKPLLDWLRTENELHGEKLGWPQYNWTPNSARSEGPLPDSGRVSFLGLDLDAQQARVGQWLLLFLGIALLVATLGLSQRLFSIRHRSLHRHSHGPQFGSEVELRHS
pepsin, sequence (P0DJD8 63-388): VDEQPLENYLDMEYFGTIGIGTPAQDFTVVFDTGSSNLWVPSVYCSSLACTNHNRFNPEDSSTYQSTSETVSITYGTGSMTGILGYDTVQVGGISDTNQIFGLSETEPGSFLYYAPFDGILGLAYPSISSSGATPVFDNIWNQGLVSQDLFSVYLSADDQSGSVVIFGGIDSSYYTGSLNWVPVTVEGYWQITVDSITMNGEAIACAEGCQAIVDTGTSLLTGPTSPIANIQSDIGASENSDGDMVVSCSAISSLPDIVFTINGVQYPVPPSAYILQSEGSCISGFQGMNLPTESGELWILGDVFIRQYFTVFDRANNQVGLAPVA

Structure (SMILES) | Effect on lag phase of EcN compared with control [1] | Lag (min) [1, 5] | Prebiotic index (PI) [3] | other results
CC(=O)c1c(C)cc2cccc(O[C@@H]3O[C@H](CO)[C@@H](O)[C@H](O)[C@H]3O)c2c1O [Compound 7, 6-methyl-7-acetyl-1,8-dihydroxy naphthalene-1-O-β-D-glucoside] | significantly (P < 0.05) decreased lag phase | 180 ^b min |  | 
Cc1cc(O)c2c(c1)C(=O)c1cccc(O)c1C2=O [Compound 2, chrysophanol] | significantly (P < 0.05) decreased lag phase | 180 ^b min |  | 
CC[C@H](CC[C@@H](C)[C@H]1CC[C@H]2[C@@H]3CC=C4C[C@@H](O)CC[C@]4(C)[C@H]3CC[C@]12C)C(C)C [Compound 4, β-sitosterol] | significantly (P < 0.05) decreased lag phase | 60 ^c min | 3.05 ± 0.47 | Td (min), doubling time [1, 5]: 39.71 min; Prebiotic activity score (Pscore) [2]: about 3.02 ± 0.48
CC(=O)c1c(C)cc2cccc(O)c2c1O [Compound 1, Nepodin] |  | 240 ^a min | 0.94 ± 0.24 | ACE inhibitory activity [4]: the highest compared with other isolated compounds
CC(C)CC(=O)N[C@H](C(=O)N[C@H](C(=O)N[C@@H](CC(C)C)[C@@H](O)CC(=O)N[C@@H](C)C(=O)N[C@@H](CC(C)C)[C@@H](O)CC(=O)O)C(C)C)C(C)C [Pepstatin, Pepstatin A] (Isovaleryl-VV[Sta]A[Sta]-OH) |  |  |  | Inhibition of pepsin (protease) activity (pepsin): inhibitory activity greater than for any extracts or isolated compounds
Cc1cc(O)c2c(c1)C(=O)c1cc(O)cc(O)c1C2=O [Compound 5, emodin] |  | 240 ^a min | 1.14 ± 0.20 | ACE inhibitory activity [4]: the lowest inhibitory activity of ACE compared with other compounds
CC[C@@H](CCC(C)C1CCC2C3CC=C4C[C@@H](O[C@@H]5O[C@H](CO)[C@@H](O)[C@H](O)[C@H]5O)CC[C@]4(C)C3CC[C@]12C)C(C)C (stereo partly drawn) [Compound 6, β-sitosterol 3-O-β-D-glucoside] | significantly (P < 0.05) decreased lag phase | 180 ^b min |  | 
COc1cc(O)c2c(c1)C(=O)c1cc(C)cc(O)c1C2=O [Compound 3, physcion] | significantly (P < 0.05) decreased lag phase | 180 ^b min |  | 
CCO[C@@H]1O[C@H](CO)[C@@H](O)[C@H](O)[C@H]1O [Compound 8, ethyl β-D-glucopyranoside] | significantly (P < 0.05) decreased lag phase | 180 ^b min |  | 
C[C@H]1O[C@H](O[C@H]2[C@H](O)[C@@H](O)[C@@H](O[C@H]3[C@H](O)[C@@H](O)C(O)O[C@@H]3CO)O[C@@H]2CO)[C@H](O)[C@@H](O)[C@@H]1N[C@H]1C=C(CO)[C@@H](O)[C@H](O)[C@H]1O (some centres unmarked) [acarbose, Acarbose] |  |  |  | Inhibition of α-amylase activity (α-amylase): inhibition was greater than for either extracts
